Source: US11311598B2, “Peptides and analogs for use in the treatment of oral mucositis” (Soligenix, Inc., priority 2013, dated 2022)
Where no end group is shown, it is not given here.

Legend:
male C57BL/6 mice = assay: DSS-induced colitis model; type: in vivo, mouse
Protocol: The ability of IV RIVPA (SEQ ID NO. 5), administered pre-emptively or therapeutically, to directly protect GI mucosal surfaces was confirmed in a DSS-induced colitis model. In this model, DSS was administered as a 3% DSS solution in the drinking water of male C57BL/6 mice from Days 0 to 5 of the study. Colitis was monitored by video endoscopy on Days 7, 14 and 21. RIVPA (SEQ ID NO. 5) (25 mg/kg IV) was administered every third day from Days 0 to 18 (Q3d d0-18), from Days 3 to 18 (Q3d d3-18) or from Days 6 to 18 (Q3d d6-18). […] However, reduction in Day 7 scores was only observed in groups which had received at least 2 doses of RIVPA (SEQ ID NO. 5) by that time (i.e., Q3d d0-18 and Q3d d3-18 but not Q3d d6-18). […] Statistical analysis was undertaken using t-tests and an asterisk indicates statistically significant differences from control (p<0.05).

[1] = system: CNS receptors and ion channels; assay: battery of CNS receptors and ion channels in vitro; type: binding
Protocol: No effects of RIVPA (SEQ ID NO. 5) have been observed on the central nervous system (CNS) in any study at any dose level and little or no radiolabelled RIVPA (SEQ ID NO. 5) was found in the mouse CNS at dose levels of either 20 or 90 mg/kg.

human normal blood cells = assay: proliferation of human normal blood cells in vitro; type: cell-based
[2] = system: primary human leukemia cells; assay: proliferation of primary human leukemia cells in vitro; type: cell-based
CD-1 mice = assay: recovery of circulating blood cells after induction of leukopenia; type: in vivo, mouse; conditions: Cp-induced leukopenia, 20 or 50 mg/kg IV on Days 5, 7, 9 and 11
Protocol: Leukopenia was induced with 2 IP injections of Cp (150 mg/kg on Day 1 and 100 mg/kg on Day 4), resulting in well-established leukopenia by Day 4 that persisted until approximately Day 10. Saline or RIVPA (SEQ ID NO. 5) (20 or 50 mg/kg) was administered IV on Days 5, 7, 9 and 11. Six animals per group were sacrificed on each of Days 6, 8, 10, 12 and 14 and evaluated for complete blood count and differential. Neither the levels nor dynamics of the total leukocyte and differential white blood cell counts were altered during the course of recovery when compared to the vehicle control group (FIG. 15).

leukopenic animals = assay: infection studies in leukopenic animals (antibiotic interference); type: in vivo
metabolism and excretion = conditions: in vivo
healthy volunteers = assay: Phase 1 study in healthy volunteers, safety (SAD and MAD); type: in vivo, human
From the text: Clinical experience with RIVPA (SEQ ID NO. 5) was obtained in a Phase 1 Study. The primary objective of the study was to determine the maximum tolerated dose (MTD) of single and repeat ascending doses of RIVPA (SEQ ID NO. 5) injectable solution following IV administration in healthy volunteers. The secondary objectives of this study included the assessment of the dose limiting toxicity (DLT), safety, PK and pharmacodynamic (PD) profiles of RIVPA (SEQ ID NO. 5) after single and repeated ascending IV doses of RIVPA (SEQ ID NO. 5). The study was divided into 2 phases: a single-ascending dose (SAD) phase and a multiple-ascending dose (MAD) phase.
Single IV doses of RIVPA (SEQ ID NO. 5) were well tolerated up to the maximum tested (8 mg/kg) and daily IV doses were well tolerated up to the maximum tested (6.5 mg/kg for 7 days).
The most frequently reported TEAEs (observed in more than one subject who received RIVPA (SEQ ID NO. 5) and in a higher proportion (%) than placebo subjects) were study treatment procedure-related events (General Disorders and Administration Site Conditions) such as vessel puncture site haematoma, vessel puncture site reaction and vessel puncture site pain. All vessel puncture-related events were mild and determined to be unrelated to study treatment by the QI. The second most frequently reported TEAEs were Nervous System Disorders, specifically headache and dizziness; these events were only mild to moderate. All other TEAEs were reported by only 1 subject at any given dose level (maximum of 3 dose levels).
The incidence of “possibly-related” events was also higher in the 2 highest dose levels. However, due to the small sample sizes (4 subjects received active treatment in each cohort), it was not possible to conclude whether the results definitely represented a dose-response. The majority of the TEAEs were not related to study treatment and were mild in severity with only one event reported as moderate. The most frequently reported TEAEs for subjects who received RIVPA (SEQ ID NO. 5) were General Disorders and Administration Site Conditions (i.e., procedure-related events) such as vessel puncture site haematoma, vessel puncture site reaction, and vessel puncture site pain. All vessel puncture-related events were mild and judged to be unrelated to treatment. Increased alanine aminotransferase (ALT) and back pain were reported by 3 (15.0%) subjects who received RIVPA (SEQ ID NO. 5) and these events were observed by only one (10.0%) subject who received the placebo.

whole blood = assay: ex vivo LPS stimulation of whole blood from Phase 1 subjects; type: cell-based, human; conditions: dose range 0.15-2 mg/kg; 4 hours in vitro LPS stimulation of whole blood
Protocol: In ex vivo investigations using blood samples obtained during the Phase 1 healthy human volunteer study, a number of cytokine and chemokine analytes were quantified after 4 hours of in vitro stimulation of whole blood with LPS. The inter-individual variability in analyte levels was larger than any variation in time or response to RIVPA (SEQ ID NO. 5) or placebo administration and the data were therefore self-normalized using the individual pre-dose analyte level to standardize all responses for each individual subject (the Activity Ratio). RIVPA (SEQ ID NO. 5) effects on the analyte Activity Ratios (ARs) were neither constant throughout time, nor linearly dose responsive.

[3] = mice
[4] = multiple ascending dose phase, subjects who received RIVPA

RIVPA-NH2 [RIVPA (SEQ ID NO. 5), RIVPA]
endoscopic colitis severity score (male C57BL/6 mice; Day 7, Q3d d0-18): reduction | endoscopic colitis severity score (male C57BL/6 mice; Day 7, Q3d d3-18): reduction | endoscopic colitis severity score (male C57BL/6 mice; Day 14, all regimens, 25 mg/kg IV every third day): statistically significant reduction | endoscopic colitis response (male C57BL/6 mice; Day 21, all 3 treatment groups): responding in a similar manner | edema and necrosis, histopathology of the colon (male C57BL/6 mice; Day 21, some RIVPA treated groups): statistically significantly decreased | severity of DSS-induced colitis (male C57BL/6 mice; endoscopy days 7, 14, 21 and histopathology day 21, FIG. 3): reduces | interaction with CNS receptors and ion channels [1]: No interaction was detected | proliferation of normal blood cells (human normal blood cells): did not promote the proliferation | proliferation of primary leukemia cells [2]: did not promote the proliferation | recovery of circulating blood cell populations after induction of leukopenia (CD-1 mice): did not alter | interference with antibiotic efficacy (leukopenic animals): no interference | primary metabolism (metabolism and excretion): proteases throughout body tissues | role of urine, feces and bile excretion in clearance (metabolism and excretion): very minor role | vital sign measurements, clinical laboratory or ECG results versus placebo (healthy volunteers; Phase 1): No safety concerns or significant differences | deaths and serious Adverse Events (healthy volunteers; Phase 1, SAD and MAD): no deaths and no clinically significant, severe, or serious Adverse Events | dose limiting toxicities (DLTs) (healthy volunteers; Phase 1, SAD and MAD): no dose limiting toxicities | MTD (healthy volunteers; either phase of the trial): not reached | daily IV doses well tolerated up to the maximum tested (healthy volunteers; healthy volunteers, daily for 7 days): ≤ 6.5 mg/kg | single IV doses well tolerated up to the maximum tested (healthy volunteers; healthy volunteers, single-ascending dose phase): ≤ 8 mg/kg | incidence of TEAEs (healthy volunteers; multiple ascending dose phase, 4.5 and 6.5 mg/kg/day): highest incidence | Increased alanine aminotransferase (ALT) (healthy volunteers; [4]): 3 (15.0%) subjects | back pain (healthy volunteers; [4]): 3 (15.0%) subjects | incidence of TEAEs (healthy volunteers; single ascending dose phase): not dose-related | anti-inflammatory status (TNF RII, IL-1ra vs TNFα, IL-1β Activity Ratios) (whole blood): evidence of an increase | PK clearance from the circulation [3]: within minutes
